#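 Method: 48-hour compound exposure of cells in 96-well plates, five concentrations, linear interpolation of endpoints. Abbreviation: GI50, concentration required for 50% inhibition of growth.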 Activity calls are given as the source filed them. Cut-off read from the data, not from the text of the source: active = GI50 up to about 1.1 µM and inactive = higher.
# Tests used:
# Experiment in all cases: inhibition of tumour cell growth, NCI panel, 48 h
# [1] = tested on: ACHN
# [2] = tested on: NCI-H226
# [3] = tested on: NCI/ADR-RES
# [4] = tested on: SK-MEL-5
# [5] = tested on: RXF 393
# [6] = tested on: T47D
# [7] = tested on: HL-60
# [8] = tested on: HT-29
# [9] = tested on: RPMI-8226
# [10] = tested on: CCRF-CEM
# [11] = tested on: SN12C
# [12] = tested on: SF-268
# [13] = tested on: SNB-75
# [14] = tested on: LOX IMVI
# [15] = tested on: COLO 205
# [16] = tested on: M14
# [17] = tested on: DU-145
# [18] = tested on: NCI-H460
# [19] = tested on: MDA-MB-435
SMILES,GI50 [1],GI50 [2],GI50 [3],GI50 [4],GI50 [5],GI50 [6],GI50 [7],GI50 [8],GI50 [9],GI50 [10],GI50 [11],GI50 [12],GI50 [13],GI50 [14],GI50 [15],GI50 [16],GI50 [17],GI50 [18],GI50 [19]
NC(=S)N/N=C1\CCCCC1C(O)(C(F)(F)Cl)C(F)(F)Cl (stereo unspecified),> 10 µM (inactive),> 10 µM (inactive),> 10 µM (inactive),> 10 µM (inactive),> 10 µM (inactive),> 10 µM (inactive),> 10 µM (inactive),> 10 µM (inactive),> 10 µM (inactive),> 10 µM (inactive),> 10 µM (inactive),> 10 µM (inactive),> 10 µM (inactive),> 10 µM (inactive),> 10 µM (inactive),> 10 µM (inactive),> 10 µM (inactive),> 10 µM (inactive),> 10 µM (inactive)
O=C1CSC(c2ccccc2)N1c1nc2cc3sc(N4C(=O)CSC4c4ccccc4)nc3cc2s1 (stereo unspecified),35.6 µM (inactive),15.8 µM (inactive),25.2 µM (inactive),32.3 µM (inactive),> 100 µM (inactive),61 µM (inactive),> 63.7 µM (inactive),19.1 µM (inactive),71.1 µM (inactive),4.35 µM (inactive),32.4 µM (inactive),> 87.3 µM (inactive),38 µM (inactive),25.4 µM (inactive),2.85 µM (inactive),> 87.3 µM (inactive),15.2 µM (inactive),3.1 µM (inactive),55.6 µM (inactive)
COc1cc(C2c3cc4c(cc3OC(N3CCCC3)C2C)OCO4)cc(OC)c1O (stereo unspecified),28.6 µM (inactive),25.5 µM (inactive),5.93 µM (inactive),4.9 µM (inactive),7.46 µM (inactive),31.8 µM (inactive),4.58 µM (inactive),17.4 µM (inactive),45.6 µM (inactive),15.1 µM (inactive),23.4 µM (inactive),22.9 µM (inactive),4.26 µM (inactive),23 µM (inactive),23.1 µM (inactive),16 µM (inactive),31.7 µM (inactive),16.3 µM (inactive),2.48 µM (inactive)
COc1cccc(C2ON=C(c3ccccc3)N2C23CC4CC(CC(C4)C2)C3)c1 (stereo unspecified),> 10 µM (inactive),4.63 µM (inactive),> 10 µM (inactive),> 10 µM (inactive),> 10 µM (inactive),> 10 µM (inactive),5.09 µM (inactive),> 10 µM (inactive),7.24 µM (inactive),> 10 µM (inactive),> 10 µM (inactive),> 10 µM (inactive),8.91 µM (inactive),> 10 µM (inactive),> 10 µM (inactive),> 10 µM (inactive),> 10 µM (inactive),> 10 µM (inactive),> 10 µM (inactive)
COc1ccc(/C=C/C2=NN(c3cccc(S(=O)(=O)O)c3)C3(C2)SCC(=O)N3c2nc3ccccc3s2)cc1 (stereo unspecified),69 µM (inactive),24.6 µM (inactive),59 µM (inactive),58.9 µM (inactive),> 100 µM (inactive),16.5 µM (inactive),> 100 µM (inactive),> 100 µM (inactive),22.8 µM (inactive),17.3 µM (inactive),> 100 µM (inactive),98.6 µM (inactive),> 100 µM (inactive),33.1 µM (inactive),> 100 µM (inactive),> 100 µM (inactive),66.5 µM (inactive),50.7 µM (inactive),62.4 µM (inactive)
CC1(C)Cc2nc3c(cc2C(=O)C1/C=N/C(C#N)=C(\N)C#N)C(=O)C(/C=N/C(C#N)=C(\N)C#N)C(C)(C)C3 (stereo unspecified),2.28 µM (inactive),2.84 µM (inactive),6.47 µM (inactive),2 µM (inactive),1.68 µM (inactive),1.32 µM (inactive),2.04 µM (inactive),2.54 µM (inactive),2.74 µM (inactive),2.39 µM (inactive),2.06 µM (inactive),1.64 µM (inactive),1.66 µM (inactive),2.09 µM (inactive),2.54 µM (inactive),1.67 µM (inactive),2.3 µM (inactive),2.61 µM (inactive),2.08 µM (inactive)
NC(=O)NO [HYDROXYUREA],108 µM (inactive),773 µM (inactive),390 µM (inactive),507 µM (inactive),857 µM (inactive),1490 µM (inactive),18.4 µM (inactive),605 µM (inactive),277 µM (inactive),50.4 µM (inactive),738 µM (inactive),524 µM (inactive),817 µM (inactive),700 µM (inactive),1740 µM (inactive),597 µM (inactive),818 µM (inactive),344 µM (inactive),2000 µM (inactive)
O=c1c2ncn(C3CCCO3)c2n(-c2ccccc2)c(=S)n1-c1ccccc1 (stereo unspecified),> 100 µM (inactive),> 100 µM (inactive),> 100 µM (inactive),> 100 µM (inactive),> 100 µM (inactive),> 100 µM (inactive),> 100 µM (inactive),> 100 µM (inactive),> 100 µM (inactive),> 100 µM (inactive),> 100 µM (inactive),> 100 µM (inactive),97.7 µM (inactive),> 100 µM (inactive),> 100 µM (inactive),> 100 µM (inactive),> 100 µM (inactive),> 100 µM (inactive),> 100 µM (inactive)
CCOC1Oc2ccccc2-c2nc(SC)ncc21 (stereo unspecified),> 100 µM (inactive),> 100 µM (inactive),82.8 µM (inactive),52.5 µM (inactive),> 100 µM (inactive),27.4 µM (inactive),45.9 µM (inactive),52.4 µM (inactive),70 µM (inactive),> 100 µM (inactive),89.7 µM (inactive),> 100 µM (inactive),> 100 µM (inactive),80.7 µM (inactive),> 100 µM (inactive),> 100 µM (inactive),96.6 µM (inactive),55.6 µM (inactive),> 100 µM (inactive)
COc1ccc2c(c1)C(=O)C(=O)c1cc(O)c(OC)c(OC)c1-2,0.893 µM (active),5.64 µM (inactive),1.03 µM (active),0.826 µM (active),0.9 µM (active),1.13 µM (inactive),0.104 µM (active),1.32 µM (inactive),1.09 µM (active),0.791 µM (active),0.879 µM (active),1 µM (active),1.18 µM (inactive),0.883 µM (active),1.31 µM (inactive),0.933 µM (active),0.918 µM (active),3.02 µM (inactive),0.115 µM (active)
COC1=CCC2=C(CCN(C(=O)C3CCC3)C2Cc2ccc(OC)c(O)c2)C1 (stereo unspecified),35.4 µM (inactive),49.1 µM (inactive),9.82 µM (inactive),8.34 µM (inactive),4.68 µM (inactive),19.4 µM (inactive),4.3 µM (inactive),20.3 µM (inactive),29.4 µM (inactive),21.8 µM (inactive),19.5 µM (inactive),33.1 µM (inactive),10.7 µM (inactive),36.6 µM (inactive),16 µM (inactive),16.9 µM (inactive),20.3 µM (inactive),12.2 µM (inactive),3.09 µM (inactive)
N=C(N)N/N=C/c1c(-c2ccc(Cl)cc2)nc2n1CCS2,14.1 µM (inactive),20.1 µM (inactive),16.4 µM (inactive),3.32 µM (inactive),9.29 µM (inactive),13.6 µM (inactive),31.1 µM (inactive),8.87 µM (inactive),7.53 µM (inactive),2.43 µM (inactive),14.3 µM (inactive),11.5 µM (inactive),13.3 µM (inactive),4.49 µM (inactive),4.38 µM (inactive),2.94 µM (inactive),12.8 µM (inactive),13.1 µM (inactive),11.9 µM (inactive)
c1ccc2c(c1)N[C@@H]1c3[nH]c4ccccc4c3CC[C@H]21,21.4 µM (inactive),12.5 µM (inactive),13.6 µM (inactive),14.3 µM (inactive),17.9 µM (inactive),16.7 µM (inactive),16.1 µM (inactive),15.6 µM (inactive),14.7 µM (inactive),15 µM (inactive),15.2 µM (inactive),22.4 µM (inactive),1.3 µM (inactive),16 µM (inactive),14.7 µM (inactive),13.5 µM (inactive),16.9 µM (inactive),16.8 µM (inactive),17.3 µM (inactive)
N=C(N)NS(=O)(=O)c1ccc(NC(=O)c2cccc3c(NNc4ccc(S(=O)(=O)N=C(N)N)cc4)c4ccccc4nc23)cc1,75 µM (inactive),91.8 µM (inactive),> 100 µM (inactive),56.9 µM (inactive),> 100 µM (inactive),22.6 µM (inactive),35.5 µM (inactive),31.1 µM (inactive),37.9 µM (inactive),19.3 µM (inactive),> 100 µM (inactive),61.9 µM (inactive),> 100 µM (inactive),34.8 µM (inactive),92.7 µM (inactive),> 100 µM (inactive),> 100 µM (inactive),32.7 µM (inactive),42.3 µM (inactive)

# From ChEMBL document CHEMBL1201862, “PubChem BioAssay data set” (2004)
